The results in this text go back to ChEMBL document CHEMBL5727973, “Azetidinyloxyphenylpyrrolidine compounds” (2020).

Broadly, the pIC50 is −log10 of the IC50, conventionally taken in molar units.

The assay deals with 3',5'-cyclic-AMP phosphodiesterase 4B (Homo sapiens, UniProt Q07343). Put plainly: Inhibition In Vitro Assay: PDE4A, PDE4B, PDE4C, PDE4D, and PDE5 human recombinant proteins are expressed and purified from Saccharomyes cerevisiae that lack endogenous PDEs. The phosphodiesterase enzymes are diluted on ice with enzyme dilution buffer (25 mM Tris, pH 7.5, 0.1 mM DTT, 5.0 mM MgCl2, 100 mM NaCl, 5 μM ZnSO4, 100 μg/mL BSA) to give approximately 20%-40% hydrolysis of cyclic nucleotide monophosphate (cNMP) in the absence of inhibitor. The stock solution of test compounds are diluted on the Beckman BioMek™ 1000 workstation to span a concentration range of 4.5 log units in 0.5 log increments. The DMSO concentration in the final test system is 2.5% for all PDE enzymes. The final test compound concentration tested ranged from 0.03 nM to 1 μM. The assay is performed in a 96-well microtiter plate format on a Beckman BioMek™ 1000 robotic station. Each row of the plate represents a 10-point dose response curve containing blank (no enzyme), non-inhibited control, and inhibitor dilutions spanning 4.5 log units in concentration in 0.5 log increments. Assay stock solutions are loaded into the Biomek™ reservoirs (water, inhibitor diluent [2.5% or 10% DMSO], 5× PDE assay buffer, substrate, inhibitor solutions, enzyme solutions, snake venom nucleotidase, and charcoal suspension). The reaction is initiated with enzyme, and incubated for 15 minutes at 30° C. […].
Sequence of 3',5'-cyclic-AMP phosphodiesterase 4B (Q07343 whole entry): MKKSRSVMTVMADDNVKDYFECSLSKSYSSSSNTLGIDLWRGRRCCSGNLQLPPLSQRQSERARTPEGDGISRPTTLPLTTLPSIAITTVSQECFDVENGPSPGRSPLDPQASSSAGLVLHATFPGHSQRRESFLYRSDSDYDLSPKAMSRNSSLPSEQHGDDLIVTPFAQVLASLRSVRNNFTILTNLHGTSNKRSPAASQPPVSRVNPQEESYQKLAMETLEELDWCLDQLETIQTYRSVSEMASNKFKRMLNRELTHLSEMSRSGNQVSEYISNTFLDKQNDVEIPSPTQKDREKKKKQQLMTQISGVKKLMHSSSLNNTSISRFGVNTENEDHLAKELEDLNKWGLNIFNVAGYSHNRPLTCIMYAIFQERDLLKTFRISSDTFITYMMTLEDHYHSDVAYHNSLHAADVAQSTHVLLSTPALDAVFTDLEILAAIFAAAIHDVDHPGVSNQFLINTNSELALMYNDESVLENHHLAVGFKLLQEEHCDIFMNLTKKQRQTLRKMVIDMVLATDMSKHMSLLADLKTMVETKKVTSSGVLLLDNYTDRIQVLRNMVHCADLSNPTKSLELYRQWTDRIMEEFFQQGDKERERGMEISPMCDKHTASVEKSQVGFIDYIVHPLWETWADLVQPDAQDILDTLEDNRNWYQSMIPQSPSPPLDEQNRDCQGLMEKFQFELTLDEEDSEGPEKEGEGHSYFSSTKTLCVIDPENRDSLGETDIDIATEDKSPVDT

pIC50: −log10 of the molar value.

Consider `COc1ccc([C@@H]2CN(C(=O)[C@@H](O)CO)C[C@@]2(C)[C@@H](C)O)cc1OC1CN(c2cnccn2)C1`, for which the pIC50 was 7.85.
